The experiment relates to Mycobacterium tuberculosis H37Rv growth inhibition, no glycerol. The experiment is described as follows: Confirmatory growth inhibition assay, Mycobacterium tuberculosis H37Rv, absence of glycerol (AID 449764).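 As to all read-outs here: growth read after 7 days of incubation.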 The settings on record: for IC90: measured here: IC90 growth inhibition.

Where a SMILES comes first, the peptide text is derived from it. [ ]: non-standard residue; d: D form. The star is where a group is joined. ξ: configuration not given here. ξF = NC(Cc1ccccc1)C(=O)O; Cbz = O=C(OCc1ccccc1)*

Usually IC50 stands for the concentration needed to halve the response being measured. As usually defined, the IC90 is the concentration at which the effect reaches the 90% level. A higher IC90 goes with a need for much substance. For `CS(=O)(=O)c1ncc(Cl)c(C(=O)Nc2ccc(OC(F)F)cc2)n1`, the IC50 is 13.6 µM and the IC90 was over 25 µM. Take `O=C1C(Br)=Cc2cccc3cccc1c23`: the IC50 was under 0.2 µM and the IC90 is under 0.2 µM. As for `COc1ccc(-n2cc(CNCCc3cscn3)c(-c3ccccc3Cl)n2)cc1`, the concentration for half-maximal inhibition (IC50) was 27.8 µM and the IC90 amounted to 35.9 µM. With `O=[N+]([O-])c1ccc(CN2CCN(c3ccc(Cl)cc3)CC2)o1`, the IC50 is 0.44 µM and the IC90 was over 100 µM.

With `CC1(C)C2CCC1(C)C(OCC[N+](C)(C)CC(=O)OC1CCCCC1)C2` (stereo not drawn), the IC50 is 12 µM and the IC90 is 13.1 µM.

For the compound `Cc1cc(Br)ccc1NC(=O)c1cnc(N2CCN(c3ccccn3)CC2)c2ccccc12`, the IC50 was 2.34 µM and the IC90 worked out at 3.49 µM. As for `CCN(Cc1ccncc1)Cc1nc(-c2ccc(C(=O)OC)cc2)no1`, the IC50 is 34.2 µM and the IC90 worked out at 53.6 µM.

Turning to `CCCNc1nc(-c2cc(C(=O)Nc3ccccc3)on2)cc(C(C)C)n1`, the IC50 is 42.5 µM and the 90% effect concentration (IC90) came out at 68.9 µM. For `CCCCS(=O)(=O)/C=C\C=C/S(=O)(=O)CCCC` the same measures were 2.24 µM and 2.92 µM.

In the case of `COc1ccc(/C=C2\CCC/C(=C\C=N\N(C)C)C2=O)cc1`, the IC50 is 12.4 µM and the 90% effect concentration (IC90) is 17.8 µM. For `CC1CCCN(Cc2c(O)ccc3c(=O)c(-c4nc5ccccc5s4)c(N)oc23)C1` (stereo not drawn), the IC50 is 11.7 µM and the IC90 was 21 µM. As to `CCCCOCCCn1c(-c2ccco2)nc2nc3ccccc3nc21`, the IC50 was 99.9 µM and the IC90 was over 100 µM. In the case of `O=C(NCc1nnnn1-c1ccc(F)cc1)c1ccc([N+](=O)[O-])o1`, the 50% inhibitory concentration (IC50) is 53.7 µM and the IC90 is over 100 µM. With `CCC(=O)Oc1ccc(C(=O)Nc2ccc3c(c2)C(=O)N(C2CCCCC2)C3=O)cc1`, the IC50 is 24.1 µM and the IC90 was 28.3 µM.

On to `COc1cccc2c1C(=O)c1c(O)c3c(c(O)c1C2=O)C[C@@](O)(C(=O)CO)C[C@@H]3O[C@H]1C[C@H](N)[C@@H](O)[C@H](C)O1`, for which the IC50 was 5.87 µM and the concentration for an effect of 90% (IC90) came to 6.6 µM.

Turning to `C#CCOc1ccc2c(c1)c(C(C)=O)c(C)n2Cc1ccccc1`, the IC90 was over 100 µM. Regarding `S=C(Nc1ccc(Cl)cc1)Nc1cccc2cnccc12`, the IC50 is 5.63 µM and the IC90 turned out to be 5.92 µM. Take `CCc1cccc2c(C(=O)CCl)c[nH]c12`: the IC50 was 4.05 µM and the IC90 was found to be 7.83 µM. On to `O=C(C1CC1)N1CCCC(c2ccc(Cl)cc2)=N1`, for which the IC50 is 42.3 µM and the IC90 is 63.5 µM. Turning to `CCOC(=O)C1=C(C)Nc2nc(SCC(=O)OC)nn2C1c1cc(F)cc(F)c1` (stereo not drawn), the 50% inhibitory concentration (IC50) is 9.99 µM and the IC90 was 12.5 µM.

For the compound `CON(C)c1nc(C2CCCCC2)c2cc(C)ccc2n1`, the IC50 was 57.4 µM and the IC90 came out at 68.2 µM. With `CCOc1ccc(/C=N/OCC(=O)Nc2cc(C)on2)cc1`, the IC50 was 90 µM and the IC90 was over 100 µM. As for `CCC(=O)c1ccc(OCC(=O)OCC(=O)c2cc(C)n(C3CC3)c2C)cc1`, the IC50 is 19.2 µM and the IC90 was determined as 40.7 µM. Consider `CNC(CC(=O)c1ccc([N+](=O)[O-])cc1)C(Cl)(Cl)Cl` (stereo not drawn), for which the IC50 is 5.37 µM and the IC90 was determined as 7.81 µM. With `Cc1cc(C)n2nc(/C(C#N)=C/c3ccccn3)c(C#N)c2n1`, the half-inhibitory concentration (IC50) is 19.4 µM and the IC90 worked out at 35.5 µM.

As for `COc1ccc(C(C[N+](=O)[O-])c2c(-c3ccccc3)cc3ccccn23)c(OC)c1` (stereo not drawn), the IC50 is 45.7 µM and the IC90 was 51.8 µM. For `CC(=O)Nc1ccc(S(=O)(=O)Nc2ccc(N3CCCCC3)cc2)cc1` the same measures were 12.4 µM and 15.9 µM. For `C#CCOC(=O)/C(=C/C=C/c1ccccc1)NC(=O)c1ccccc1` the same measures were 27.1 µM and 56.6 µM. The corresponding values for `N=c1n(Cc2ccc(Cl)cc2)c2ccccc2n1CC(O)COc1ccccc1` (stereo not drawn) are 22.7 µM and 27.2 µM.

`CCOC(=O)CNC(=O)C(Cc1ccccc1)NC(=O)OCc1ccccc1` (stereo not drawn) (Cbz-[ξF]-Gly-OEt): the IC50 was 3.04 µM and the IC90 was 3.46 µM. For `O=C(CCl)Nc1cccn2ncnc12`, the IC50 was 3.32 µM and the IC90 amounted to 7.56 µM. Consider `CC1(C)Cc2c(sc(NC(=O)c3ccc(C(=O)c4ccccc4)cc3)c2C(N)=O)C(C)(C)N1`, for which the IC50 was 22.9 µM and the IC90 was over 50 µM.

Regarding `CN1C(=O)N(C)c2ccc(C=O)c3cccc1c23`, the IC50 was 45.5 µM and the IC90 was determined as 51.4 µM. For `S=C(Nc1ccc(Cl)cc1)NC1CC2CCC(C1)N2Cc1ccccc1` (stereo not drawn) the same measures were 63.1 µM and 95.6 µM. Regarding `CCC(=O)NC(=S)Nc1ccc(NC(=O)COc2ccc(Cl)cc2Cl)cc1`, the half-maximal inhibitory concentration (IC50) was 79.3 µM and the IC90 is over 100 µM. For `Cc1oc(-c2cccc(Cl)c2)nc1CN1CCC(C(=O)N2CCN(c3ccccc3F)CC2)CC1`, the IC50 is 18.7 µM and the IC90 is 26.4 µM. Take `CCCc1ccc(NC(=O)C2CCN(c3cnccn3)CC2)cc1`: the IC50 is 67.2 µM and the IC90 was found to be 82.7 µM. For `CC(=NCc1ccc2c(c1)OCO2)C1=C(O)c2ccccc2C1=O`, the IC50 is under 0.2 µM and the IC90 came out at 1.4 µM. For `O=C1CN(CC(=O)N2CCCCC2)c2ccccc2O1`, the IC50 is 24.8 µM and the IC90 worked out at 27.1 µM.

For `Cc1cccc(C2=N/C(=C\c3cccs3)C(=O)O2)c1`, the IC50 was 7.65 µM and the IC90 was over 100 µM.

Take `CCOC(=O)c1nnc(-c2ccccc2)nc1NCc1ccccc1`: the half-maximal inhibitory concentration (IC50) was 19.2 µM and the IC90 is over 100 µM. The corresponding values for `C/C(=N/Nc1cc(-c2ccccc2)nc(-c2ccccc2)n1)c1ccc(O)cc1` are 9.73 µM and 12.7 µM. On to `CCCCNC(=S)N(C)/N=C/c1ccc2c(c1)OCO2`, for which the IC50 was 11.8 µM and the IC90 was found to be 21.6 µM. As to `CC1CN(c2ccc([N+](=O)[O-])c(NCCOc3ccc(Cl)cc3)c2)CC(C)N1` (stereo not drawn), the IC50 was 15.5 µM and the IC90 was 31.2 µM. Regarding `CCCOC(=O)CSc1nc(N2CCOCC2)c2c(c1C#N)CC(C)(C)OC2`, the IC50 was 23.9 µM and the IC90 is 42.5 µM. On to `O=C(O)C1CC=CCC1C(=O)N1CCN(c2nc(-c3ccccc3Cl)c3cc(Br)ccc3n2)CC1` (stereo not drawn), for which the IC50 was 43.2 µM and the concentration for an effect of 90% (IC90) was found to be 68.8 µM. The corresponding values for `CCOC(=O)C1CCN(CC(O)COc2ccc(C(C)(C)CC)cc2)CC1` (stereo not drawn) are 23.2 µM and 26.5 µM. As to `O=C1N=C(N2CCC(Cc3ccccc3)CC2)S/C1=C/c1cn[nH]c1-c1ccccc1`, the half-inhibitory concentration (IC50) is 78.9 µM and the IC90 is over 100 µM. Regarding `O=C(Nc1cccnc1Cl)c1cc(-c2ccco2)on1`, the IC50 is 38.4 µM and the concentration for an effect of 90% (IC90) was over 100 µM.

For `CN1CCN(Cc2nc3ccccc3c(=O)n2Cc2nc(-c3ccc4ccccc4c3)cs2)CC1`, the IC50 is 20.7 µM and the IC90 amounted to 28.5 µM. With `CCOc1ccc(NCc2cccn2-c2nnc(N3CCC(C(=O)NCCCN4C(C)CCCC4C)CC3)s2)cc1` (stereo not drawn), the IC50 was 93.6 µM and the IC90 is over 100 µM. Turning to `Cc1cc(-c2ccc(Cl)cc2)c2cnn(C(C)C)c2n1`, the IC50 is 38.9 µM and the IC90 amounted to 58.1 µM. As to `Nc1nc(CN2CCN(c3ccccc3F)CC2)nc(N2CCCc3ccccc32)n1`, the IC50 was 12 µM and the IC90 was 24.2 µM. Take `CCOC(=O)COc1ccc2c(c1)C(=O)CC(C)(c1cccnc1)O2` (stereo not drawn): the IC50 is 13.4 µM and the IC90 was found to be 32.5 µM. The corresponding values for `COC(=O)c1c(NC(=O)C(=O)N2CCCC2)sc2c1CC(C)(C)OC2` are 65.3 µM and over 100 µM. For `Cc1ccc(OCCN2CCN(c3ncnc4sc(C)c(C)c34)CC2)cc1`, the IC50 was 53.5 µM and the 90% effect concentration (IC90) was 79.3 µM. For `c1ccc(-c2ccc(C(c3ccccc3)n3ccnc3)cc2)cc1` (stereo not drawn), the IC50 was 23.2 µM and the IC90 was 26.4 µM. For `COc1ccccc1Nc1nc(N)nc(CCl)n1` the same measures were 4.83 µM and 12.3 µM. For `O=C(NNc1nc2ccccc2s1)c1ccccc1F` the same measures were 39.9 µM and 59.2 µM. Turning to `CCOc1cccc(C=Nc2cc(C)cc(C)c2O)c1O`, the IC50 was 31.2 µM and the IC90 turned out to be 41.4 µM. As for `COC(=O)[C@H](CC(C)C)NC(=O)c1cc2c(cn1)[nH]c1ccccc12`, the IC50 was 19.9 µM and the IC90 was found to be 39.8 µM. `COc1cc(/C=C(\C#N)c2nc3c(s2)CC(C)CC3)ccc1O` (stereo not drawn): the IC50 was 45.5 µM and the IC90 was 51.4 µM. `CCOC(=O)C1=C(C)NC(SCC(=O)Nc2nc(C)cs2)=C(C#N)C1c1cccs1` (stereo not drawn): the 50% inhibitory concentration (IC50) is 31.3 µM and the concentration for an effect of 90% (IC90) was 49.8 µM. `Cc1ccccc1NC(=O)Cc1nc(COC(=O)/C=C/c2ccccc2)cs1`: the IC50 was 67.7 µM and the IC90 was 92.3 µM. With `COC(=O)c1ccc(/C=C/c2c(-c3ccsc3)oc3ccc(N4CCOCC4)cc23)cc1`, the IC50 is 30.6 µM and the IC90 is 53.6 µM. As to `Cc1oc(C(=O)Nc2ccc(O)cc2)cc1COc1ccccc1`, the IC50 was 15.2 µM and the IC90 worked out at 35.1 µM. With `COc1ccc(N2CCN(C(=O)c3ccc(CNc4c(N5CCOCC5)c(=O)c4=O)cc3)CC2)cc1`, the IC50 was 2.96 µM and the IC90 turned out to be 3.24 µM. As to `CCCCSCCCNC(=O)c1cn(CC)c2ccc(S(=O)(=O)N3CCOCC3)cc2c1=O`, the IC50 was 44.3 µM and the IC90 was 50.8 µM. `CC(C)CCC[C@@H](C)[C@H]1CC[C@H]2[C@@H]3C(=O)C=C4C[C@@H](O)CC[C@]4(C)[C@H]3CC[C@]12C`: the IC50 was 38.5 µM and the IC90 was 62.9 µM. For `Cc1ccc(NC(=O)CCl)cc1S(=O)(=O)N1CCCCCC1`, the IC50 was 10.1 µM and the IC90 came out at 14.8 µM. Take `CCN(CC)c1nc(NN)nc(Nc2ccc(C)c(Cl)c2)n1`: the IC50 is 5.84 µM and the IC90 came out at 6.79 µM. As to `Cc1ccc(C(=O)Sc2cccccc2=O)cc1`, the IC50 was 1.53 µM and the IC90 amounted to 2.12 µM.

Values taken from PubChem BioAssay AID449764 (Southern Research Specialized Biocontainment Screening …, 2010).
